# Measured values reported in patent publication US20220259593A1, “CONTROL OF MAMMALIAN GENE DOSAGE USING CRISPR” (The Regents of the University of California, priority 2019, published 2022).
# Substitutions are numbered along the chain they refer to.
# B1: cr835 (nucleic acid)
# guide: GTTTAAGAGCTAAGCTGGAAACAGCATAGCAAGTTTAAATAAGGCTAGTCCGTTATCAACTTGAAAAAGTGGCACCGAGTCGGCGCT
# modifications: listed as DNA, chemistry not fully specified
# B2: cr748 (nucleic acid)
# guide: B1 guide with T62C, A65G, A67G, C84T
# modifications: listed as DNA, chemistry not fully specified
# B3: cr264 (nucleic acid)
# guide: B1 guide with A68T, C84T
# modifications: listed as DNA, chemistry not fully specified
# B4: cr397 (nucleic acid)
# guide: B1 guide with C60A, G69T, C84T
# modifications: listed as DNA, chemistry not fully specified
# B5: cr181 (nucleic acid)
# guide: B1 guide with C45T, G48A, C60T, G69A, A74G
# modifications: listed as DNA, chemistry not fully specified
# Assays:
# [1] = system: K562 CRISPRi cells; assay: Perturb-seq pooled growth measurement (sgRNA counts, growth phenotype γ, relative activity); type: cell-based, human; settings: sequencing read counts; for Perturb-seq pooled growth sgRNA counts, d5: 5 days of growth (day seven after transduction); for Perturb-seq pooled growth sgRNA counts, d10: 10 days of growth (day twelve after transduction); for Perturb-seq pooled growth sgRNA counts, T0: T0 = day two after transduction
# Text: Finally, we sought to use intermediate-activity sgRNAs to explore relationships between expression levels of various genes and the resulting cellular phenotypes. To simultaneously measure gene expression levels and obtain rich phenotypes for a variety of sgRNA series, we used Perturb-seq, an experimental strategy that enables matched capture of the transcriptome and the identity of an expressed sgRNA for each individual cell in pools of cells (27, 31-33) (FIG. 12A). […] In addition to the single-cell transcriptomes, we measured bulk growth phenotypes conferred by sgRNAs in these cells.
# To measure the growth rate defects conferred by each sgRNA for comparison with the transcriptional phenotypes, samples of 500,000 transduced cells were taken from the same transduced cell population used in the Perturb-seq experiment on days two, seven, and twelve after transduction. Genomic DNA was extracted using the Nucleospin Blood kit (Macherey-Nagel) and sgRNA amplicons were prepared as described previously and above (19), albeit with no genomic DNA digestion or gel purification, and sequenced on HiSeq 4000 as described above for the other screens. Growth phenotypes were calculated by comparing normalized sgRNA abundances at day seven and twelve to those at day two, as described above. […] Relative sgRNA activities measured at day seven (five days of growth) were used to assign sgRNA activities in further analysis.
# [2] = system: K562 CRISPRi cells; assay: Constant region variant library pooled growth screen, K562; type: cell-based, human; settings: sgRNA constant region variants
# How it was run: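 Cells were selected with puromycin for 2 days and then kept in RPMI-1640 spinner cultures, with duplicates handled separately. Targeting sequences comprised 3 sgRNAs per essential gene for 10 genes plus six non-targeting controls. Activities were normalized against pairing with the unmodified scaffold.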
# [3] = activity relative to the un-modified constant region cr995
Molecule,"Perturb-seq pooled growth sgRNA counts, d5 [1]","Perturb-seq pooled growth sgRNA counts, d10 [1]","Perturb-seq pooled growth sgRNA counts, T0 [1]","Mean relative activity [2, 3]","Mean relative activity ([2]; activity relative to the original, un-modified constant region cr995)"
"ALDOA_+_30077139.23-P1P2_00: sgRNA targeting ALDOA, GGTCACCAGGACCCCTTCTG, SEQ ID NO: 156 (listed as DNA, chemistry not fully specified)",4056,2781,5280,,
"ALDOA_+_30077139.23-P1P2_06: sgRNA targeting ALDOA, GGTCACCAGGATCCCTTCTG, SEQ ID NO: 157 (listed as DNA, chemistry not fully specified)",4831,3500,6015,,
"ALDOA_+_30077139.23-P1P2_07: sgRNA targeting ALDOA, GGTCACCAGGCCCCCTTCTG, SEQ ID NO: 158 (listed as DNA, chemistry not fully specified)",4284,3028,4830,,
"ALDOA_+_30077139.23-P1P2_13: sgRNA targeting ALDOA, GGTCACCAGGACCCCTTTTG, SEQ ID NO: 160 (listed as DNA, chemistry not fully specified)",16944,26890,6699,,
"ALDOA_+_30077139.23-P1P2_14: sgRNA targeting ALDOA, GGTCACCAGGACCGCTTCTG, SEQ ID NO: 159 (listed as DNA, chemistry not fully specified)",5347,6076,3603,,
"ATP5E_−_57607036.23-P1P2_00: sgRNA targeting ATP5E, GGTGTCCAGGGGCACTCTGT, SEQ ID NO: 151 (listed as DNA, chemistry not fully specified)",12109,9475,8197,,
"ATP5E_−_57607036.23-P1P2_01: sgRNA targeting ATP5E, GGTGTCCTGGGGCACTCTGT, SEQ ID NO: 152 (listed as DNA, chemistry not fully specified)",10487,8806,7774,,
"ATP5E_−_57607036.23-P1P2_04: sgRNA targeting ATP5E, GGTGTCCAGGAGCACTCTGT, SEQ ID NO: 154 (listed as DNA, chemistry not fully specified)",13256,14860,7209,,
"ATP5E_−_57607036.23-P1P2_14: sgRNA targeting ATP5E, GGTGTCCAGGGGCACTGTGT, SEQ ID NO: 155 (listed as DNA, chemistry not fully specified)",10750,15257,4611,,
"ATP5E_−_57607036.23-P1P2_16: sgRNA targeting ATP5E, GGTGTCCAGGGGCGCTCTGT, SEQ ID NO: 153 (listed as DNA, chemistry not fully specified)",9571,9964,6210,,
"BCR_+_23523092.23-P1P2_00: sgRNA targeting BCR, GCGCGCGGGGCCCGTCTCAG, SEQ ID NO: 125 (listed as DNA, chemistry not fully specified)",2250,2333,9644,,
"BCR_+_23523092.23-P1P2_04: sgRNA targeting BCR, GCGCGCGGAGCCCGTCTCAG, SEQ ID NO: 127 (listed as DNA, chemistry not fully specified)",1660,2119,5355,,
"BCR_+_23523092.23-P1P2_05: sgRNA targeting BCR, GCGCGCGGCGCCCGTCTCAG, SEQ ID NO: 128 (listed as DNA, chemistry not fully specified)",12165,15537,13439,,
"BCR_+_23523092.23-P1P2_07: sgRNA targeting BCR, GCGCGCGGGGCTCGTCTCAG, SEQ ID NO: 126 (listed as DNA, chemistry not fully specified)",1744,2183,8081,,
"BCR_+_23523092.23-P1P2_13: sgRNA targeting BCR, GCGCGCGGGGCCCATCTCAG, SEQ ID NO: 130 (listed as DNA, chemistry not fully specified)",5668,7063,4304,,
"BCR_+_23523092.23-P1P2_15: sgRNA targeting BCR, GCGCGCGGGGCCCGTCGCAG, SEQ ID NO: 129 (listed as DNA, chemistry not fully specified)",6829,8085,5377,,
"CAD_+_27440280.23-P1P2_00: sgRNA targeting CAD, GGCTGGAGAGAAGCCGGGCG, SEQ ID NO: 20 (listed as DNA, chemistry not fully specified)",2464,785,8671,,
"CAD_+_27440280.23-P1P2_03: sgRNA targeting CAD, GGCTGGTGAGAAGCCGGGCG, SEQ ID NO: 102 (listed as DNA, chemistry not fully specified)",2087,907,7290,,
B1,,,,0.9515,
B2,,,,,1.146
B3,,,,0.9513,
B4,,,,0.9508,
B5,,,,0.9506,
